These results are taken from a melting point compilation (Tetko et al.; mined from patent text by program, amines drawn as free bases though some values may be those of a salt).

In turn, `COc1ccnc(CSc2nc3cscc3n2CO)c1` had a melting point of 125 to 127 °C.

As to `CN(C)Nc1c([N+](=O)[O-])cc(C(F)(F)F)c(Cl)c1[N+](=O)[O-]`, the melting point is 130 to 131 °C.

Turning to `COCc1nc(-c2ccc(-c3cnc4[nH]c(=O)n(CC5CCOCC5)c4n3)cc2)n[nH]1`, the melting point was 273 to 276 °C.

`CCc1nnc2nc(-c3cccc(C(F)(F)F)c3)ccn12` yielded a melting point of 223 to 224 °C.

Consider `O=Cc1cc(-c2ccc(O)c(O)c2)c2cc(O)c(O)cc2c1O`, for which the melting point is greater than 300 °C.

Turning to `OCCCNC1=Nc2ccccc2C1(O)c1cccc(Cl)c1` (stereo not given), the melting point lay in the range of 164 to 165 °C.

Molecule `CC(C)N(CCC(CCN(C)C1CCCCC1)(C(N)=O)c1ccccc1)C(C)C` (stereo not given) registered a melting point of 90 to 91 °C.

With `CCOCc1nc2c(N)nc3cc(N4CCOC4=O)cnc3c2n1CC(C)C`, the melting point was in the range of 174 to 176 °C.

`COc1ccc(-c2cn(C)cc(-c3ccccc3)c2=O)cc1` yielded a melting point of 165 °C.

For `Cc1ccc(-c2c(NS(=O)(=O)c3ccc(C(C)(C)C)cc3)ncnc2OCCOc2ncc(C=O)cn2)cc1`, the melting point fell in the range of 191 to 193 °C.

Molecule `Brc1ccc(-c2cn([C@H]3CN4CCC3CC4)nn2)o1` returned a melting point of 144 °C.

`COc1cc(/C=C/C=C/C(=O)NCCCC2CNCCC2c2c[nH]c3ccccc23)cc(OC)c1O` (stereo not given) came in with a melting point of 176 to 179 °C.

Molecule `CC(Oc1ccc(CCNCC(O)COc2ccccc2)cc1)C(N)=O` (stereo not given) showed a melting point of 117 to 119 °C.

In turn, `Cn1c(=O)c2c(nc(Cl)n2Cc2ccccc2C#N)n(C)c1=O` yielded a melting point of 222 to 224 °C.

`O=S1(=O)c2cccc3cccc(c23)N1CCCN1CCN(c2ccc(Br)cc2)CC1`: the melting point stood at 149 °C.

`O=C(CCCCCN1CCN(c2cccc(C(F)(F)F)c2)CC1)N1Cc2ccc(C(=O)N3CCCCC3)cc2C1`: the melting point came to 91 °C.

In turn, `CN1CCN(c2ccc(F)cc2C=C2CCCN(CCc3ccc(Cl)cc3)C2=O)CC1` registered a melting point of 88 to 90 °C.

`CCCCCCS(=O)c1c(O)cc(C)oc1=O` (stereo not given): the melting point lay in the range of 59 to 60 °C.

Turning to `O=C(Cc1c[nH]c2ccccc12)Nc1cc2c(cn1)[nH]c1ccccc12`, the melting point was in the range of 252 to 254 °C.

`Cc1ccc(-c2ccc(Cl)cc2)cc1-c1c(O)cnn(C)c1=O` had a melting point greater than 250 °C.

`CCCCOCCOc1ccc(-c2ccc3c(c2)C=C(C(=O)Nc2ccc(C(O)c4ccccn4)c(OC)c2)CCN3C(=O)C(F)(F)F)cc1` (stereo not given) came in with a melting point of 123 to 125 °C.

In the case of `CCC1(CC)CN(C(C)(C)C)C(=O)C(C)(CC)N1OC(C)c1ccccc1` (stereo not given), the melting point was 76 to 79 °C.

Turning to `Cc1ccc(COc2ccc(C=NCc3ccco3)cc2)cc1`, the melting point stood at 71 °C.

Molecule `CCOC(C[C@@H](CO)Cn1cnc2c(Cl)nc(N)nc21)OCC` yielded a melting point of 156 to 158 °C.

`COc1ccc2c(c1)CN(C(=O)OCc1ccccc1)CC(=O)N2` displayed a melting point of 138 °C.

Molecule `CC(C)Cn1nc(OCCCc2ccc(OC(C)C)cc2Oc2ncc(C(F)(F)F)cc2Cl)cc1CCC(=O)O` showed a melting point of 71 to 73 °C.

`C[C@]1(COC(=O)N2CCC(Nc3ccc(C(F)(F)F)cc3)CC2)Cn2cc([N+](=O)[O-])nc2O1`: the melting point lay within 137 to 140 °C.

Molecule `COC(=O)COc1ccc(C(C)=O)c(O)c1` returned a melting point of 101 to 103 °C.

Regarding `Cc1cccc2c(=O)c(CS(C)(=O)=O)cn(C)c12`, the melting point lay within 244 to 246 °C.

`COc1ccc2c(c1)c(Cc1cc(=O)n(C3CCCCC3)[nH]1)c(C)n2C(=O)c1ccc(Cl)c(Cl)c1` came in with a melting point of 104 to 107 °C.

The molecule `c1ccc2nc(COc3cccc4ccccc34)ccc2c1` gave a melting point of 99 to 101 °C.

In turn, `[O-][N+](=CCCc1ccccc1)C1CCCCC1` displayed a melting point of 97.2 °C.

In the case of `Cc1cc(Cl)ccc1CCN(C(=O)C(C)Cl)c1ccccc1` (stereo not given), the melting point was determined as 128 °C.

On to `CC(Oc1ccc2nc(NC(=O)NCCN3CCC(Cc4ccccc4)CC3)sc2c1)c1c(Cl)ccc(F)c1Cl` (stereo not given), for which the melting point lay in the range of 133 to 139 °C.

In turn, `N#Cc1cccc(-c2cc(-c3cc(C#N)ccc3[N+](=O)[O-])no2)c1` came in with a melting point of 225 to 227 °C.

In turn, `O=C(NCCc1cccc2ccc(OC(c3ccccc3)c3ccccc3)cc12)C1CC1` displayed a melting point of 109 to 111 °C.

Turning to `CC(C)C1NC(NC(=O)CCC2CCCCC2)C(=O)N(C)c2ccccc21` (stereo not given), the melting point was in the range of 114 to 115 °C.

`O/C(=C\c1nc2ccccc2c2nccn12)c1cccs1` showed a melting point of 128 °C.

Molecule `CC(=O)c1ccc(-c2cc(N3CCCCC3)c(C#N)c3c2-c2ccccc2C3)cc1` showed a melting point of 182 to 184 °C.

Regarding `Cc1cc2c(-c3ccccc3)nc(N3CCN(CC(=O)c4ccc(F)cc4)CC3)nc2s1`, the melting point lay in the range of 141 to 142 °C.

With `COC(=O)c1ccc(/C=C/Cc2cc3c(cc2C)CCC(C)(C)CC3)cc1`, the melting point is 59 to 60 °C.

The molecule `O=c1cc(-c2ccccc2)c2c([nH]1)CCCC2` returned a melting point of 285 to 288 °C.

`O=C(O)c1cccc(CNC2CC3CC2C2CCCC32)c1` (stereo not given) showed a melting point of 258 to 261 °C.

Take `Oc1ccccc1-c1nnco1`: the melting point fell in the range of 112 to 113 °C.

The molecule `O=c1cc(C2CCc3ccccc3C2)[nH]c2ccccc12` (racemic) showed a melting point greater than 300 °C.

In the case of `NC(C(=O)N1CCC(F)C1)C1CCCCC1` (mixture of isomers), the melting point was greater than 250 °C.

For `CCOC(=O)c1c(C)cc2nc(CO)n(-c3ccccc3Cl)c(=O)c2c1C`, the melting point was 151 to 152 °C.

Molecule `CC(C)(C)c1ccc(Cn2cc(C(=O)C(=O)O)c3ccc(-c4ccc(OC(F)(F)F)cc4)cc32)cc1` displayed a melting point of 183 to 186 °C.

The molecule `CCOC(=O)c1ncc2[nH]c3ccc(Br)cc3c2n1` came in with a melting point of 286 to 290 °C.

Turning to `NS(=O)(=O)c1ccccc1S`, the melting point lay in the range of 113 to 140 °C.

As to `O=P1(c2ccccc2)CCCC1CO` (stereo not given), the melting point was in the range of 109 to 110 °C.

The molecule `COC(OC)C(=O)NC(Cc1ccccc1)c1ccccc1` (stereo not given) displayed a melting point of 108 to 110 °C.

With `CCOC(=O)c1ccccc1N(CC(=O)OC(C)(C)C)C(=O)CNC(=O)Nc1cccc(C)c1`, the melting point was 142 °C.

As for `CC(C)Cn1c(=O)[nH]c(=O)c2nc(-c3ccc(/C=C/C(=O)O)cc3)[nH]c21`, the melting point was greater than 300 °C.

`Cc1cc(C)c(S(=O)(=O)N(C)O)c(C)c1` returned a melting point of 83 to 84 °C.

`COc1cc(C=CC(=O)c2ccc([N+](=O)[O-])cc2)cc(OC)c1` came in with a melting point of 166 °C.

`CS(=O)(=O)N1CCN([C@@H](CNS(=O)(=O)c2ccc(OCc3cccc4ccccc34)cc2)C(=O)NO)CC1`: the melting point was 148 °C.

For the molecule `COCCN1CCc2ccc(Nc3ncc(Cl)c(Nc4ccccc4C(=O)NCC(C)C)n3)cc2CC1`, the melting point fell in the range of 178 to 181 °C.

Turning to `CCCCCCCCCCCCCCOc1ccc(CC(=O)O)cc1`, the melting point lay in the range of 86 to 87 °C.

In turn, `CNc1nc(C#N)c(-c2ccncc2)s1` showed a melting point of 192 to 195 °C.

In the case of `Cc1ncc2cc(Cl)nc(Cl)n12`, the melting point lay within 134 to 135 °C.

`O=C(O)C(Oc1ccccc1)c1ccc(Oc2ccccc2)cc1` (stereo not given) displayed a melting point of 144 to 146 °C.

As for `COc1ccc2c(c1)C(c1ccc(N)cc1)=NN(C(C)=O)C(C)C2` (stereo not given), the melting point was in the range of 237 to 238 °C.

In the case of `Cc1sc2c(Br)c3ccccc3c(-c3ccc(O)c(N)c3)c2c1C`, the melting point was in the range of 173 to 175 °C.

Consider `O=C(c1cccs1)c1cnn2c(-c3ccc(F)c(N(C(=O)c4ccccc4Cl)C(=O)c4ccccc4Cl)c3)ccnc12`, for which the melting point lay in the range of 150 to 151 °C.

`COc1ccc(-c2cc(=O)c3ccc(OCC(O)CNC(C)C)cc3o2)cc1OC` (stereo not given) showed a melting point of 144 to 145 °C.

Take `O=c1ccccn1C1=CC(CF)(CF)Oc2ccc(C(F)(F)C(F)(F)F)cc21`: the melting point lay in the range of 137 to 138 °C.

The molecule `CCOCCOc1ccc(-c2ccc3c(c2)C=C(C(=O)Nc2ccc(CN(C)C4CCOCC4)cc2)CCS3(=O)=O)cc1F` returned a melting point of 212 to 214 °C.

Regarding `C=C(C)C(=O)Nc1cc(C(C)(C)C)c(O)c(C(C)(C)C)c1`, the melting point lay within 222 to 225 °C.

With `CCc1cccc2c1[nH]c1c2ccc2cc[nH]c21`, the melting point was 256 to 258 °C.

Molecule `COc1cccc([C@H]2O[C@H](CC(=O)N[C@H](CCSC)C(=O)O)C(=O)N(CC(C)(C)C)c3ccc(Cl)cc32)c1OC` returned a melting point of 161 to 162 °C.

On to `O=C(c1ccc(F)cc1)N(CCCCn1ccnc1)C1=Nc2cccc3cccc1c23`, for which the melting point was in the range of 109 to 110 °C.

`OCc1nccc(N2CCCC2)n1` displayed a melting point of 114 to 116 °C.

`CN(Cc1cccc2c1C(=O)N(C1CCC(=O)NC1=O)C2=O)C(=O)Nc1ccc(Cl)cc1` (stereo not given) returned a melting point of 279 to 281 °C.

`CCCCCOc1ccc(C(=O)Nc2ccc3cc(CN4CCCC4)cnc3c2C)cc1` gave a melting point of 155 °C.

On to `CSc1cc2c(cc1C(F)(F)F)N(C(=O)Nc1ccc(Oc3ccccc3)nc1)CC2`, for which the melting point lay in the range of 86 to 88 °C.

The molecule `CCc1nc(-c2cccc(C(=O)O)c2)c(-c2ccnc(N)c2)s1` returned a melting point of 273 to 274 °C.

Molecule `CCCC1=C(C(=O)OCC)C(C(C)C)n2ncc(C(=O)OCC)c2N1Cc1ccc(-c2ccccc2-c2nnn[nH]2)cc1` (stereo not given) registered a melting point of 183 to 184 °C.

In turn, `CN1C(=O)C(c2ccncc2)(c2cccc(-c3cc(F)ccc3F)c2)N=C1N` (stereo not given) had a melting point of 200 to 202 °C.

`O=C(c1ccc(F)cc1)C1CCN(CCCN2c3cccc4cccc(c34)S2(=O)=O)CC1`: the melting point was 132 °C.

`Cc1oc(-c2ccccc2)nc1CCC(=O)c1ccc(Br)cc1` had a melting point of 80 to 81 °C.

In the case of `C=CCC1(CC=C)c2cc(-c3ncncn3)ccc2-c2ccc(N(c3ccccc3)c3ccccc3)cc21`, the melting point was in the range of 235 to 237 °C.

Regarding `O=C(Nc1ccccn1)c1ccc(OC(F)F)c2oc3ccc(C(F)(F)F)cc3c12`, the melting point lay within 169 to 170 °C.

Consider `COC(=O)c1cc(-c2ccc(OCc3ccccc3)cc2)n(-c2ccc(S(N)(=O)=O)cc2)n1`, for which the melting point was 196 to 198 °C.

Turning to `COC(=O)C1=C(C)NC(C)=C(C(=O)OCCN2C(=O)c3ccccc3C2=O)C1c1cccc([N+](=O)[O-])c1` (stereo not given), the melting point is 182 °C.
